Here are results for 35 compounds from a melting point compilation (Tetko et al.; mined from patent text by program, amines drawn as free bases though some values may be those of a salt).

SMILES strings stand for the structures. Some results are limits rather than exact numbers.

As a reminder, the melting point is the temperature of the solid-liquid transition.

`FC(F)c1cccc(C=C2c3ccccc3CCc3ccccc32)c1` had a melting point of 92.5 °C.

`CN(C)CCC1CCCCN1CCN(C)C(=O)N1c2ccccc2C(=O)Nc2cccnc21` (stereo not given) showed a melting point of 114 to 116 °C.

In the case of `NC(=O)C1(CCCNC=O)c2ccccc2-c2ccccc21`, the melting point lay in the range of 160 to 161 °C.

For the compound `Cc1c(Br)cccc1N1CCn2c(cc3c2CCCC3)C1=O`, the melting point lay within 163 to 165 °C.

`CCc1nn2ccccc2c1N(CCCF)C(=O)COC` came in with a melting point of 59.9 to 63.9 °C.

As to `O=c1[nH]c(=Cc2ccc(OCc3ccccc3)cn2)c(=O)[nH]c1=CCc1ccccc1`, the melting point fell in the range of 223 to 225 °C.

`O=C1CCCC2=C1C(c1ccc(F)c(Br)c1)C1=C(CCCC1)N2` (stereo not given) showed a melting point of 254 to 257 °C.

As for `CC(C)Cn1c(C(=O)O)c(-c2ccc(Cl)cc2)c2cc(OCc3ccccc3)ccc2c1=O`, the melting point lay in the range of 200 to 201 °C.

Consider `Cc1nc2ccc3c(c2o1)OC(CN1C2CCC1CC(O)(c1ccc4ccccc4c1)C2)CO3` (stereo not given), for which the melting point was in the range of 192 to 195 °C.

As for `CCC12CCC3C4=C(CC(OC)=CC4)C(C)CC3C1CCC2=O` (stereo not given), the melting point was in the range of 118 to 125 °C.

For the compound `CC(=O)OC1(c2ccccc2)C=CC(=O)C=C1`, the melting point was 100 to 101 °C.

`Cc1c(SCc2ccc(-c3ccccc3)cc2)cnn(C(C)(C)C)c1=O` showed a melting point of 112 to 115 °C.

Take `CC1(O)C(CO)OC(n2cnc3c(N)ncnc32)C1(C)O` (stereo not given): the melting point stood at 180 °C.

Consider `Cc1nc(COc2cc(-n3c(=O)cc(C(F)(F)F)n(C)c3=O)c(F)cc2Cl)cs1`, for which the melting point lay in the range of 145 to 147 °C.

With `C=CC1CC1(C(=O)OC)C(=O)OCc1ccco1` (stereo not given), the melting point lay in the range of 67.5 to 68.5 °C.

For the compound `COC(=O)/C=C/c1cccc(OCCCCCOC(C)=O)c1`, the melting point fell in the range of 65 to 67 °C.

`CCn1c(C(c2ccccc2)c2ccccc2)nc(-c2ccncc2)c1-c1ccc(Cl)cc1` displayed a melting point of 199 to 200 °C.

Regarding `O=C1NCc2c1c1c3cc(O)ccc3[nH]c1c1[nH]c3ccc(O)cc3c21`, the melting point is above 330 °C.

In turn, `CCN1C(=O)C(C)(C)c2ccc(C(=O)Nc3ccncc3)cc21` showed a melting point of 209 to 211 °C.

Consider `CCC(NCCN)(C(=O)O)c1cccc(Cl)c1` (stereo not given), for which the melting point was 207 to 208 °C.

Take `CS(=O)(=O)C1CCCCC1Br` (stereo not given): the melting point was in the range of 45 to 48 °C.

Compound `CCOc1ccc(Nc2ncc(C(=O)O)c(=O)[nH]2)cc1OCC` had a melting point of 243 to 245 °C.

As for `CC(C)(C)c1ccc(/C=C/C(=O)Nc2ccc3c(c2)CCCC3)cc1`, the melting point was in the range of 198 to 199 °C.

As to `CCC(=O)Nc1ccc(NC(=O)CN2CCN(CCCCC(c3ccc(F)cc3)c3ccc(F)cc3)C(C(N)=O)C2)c(C(C)=O)c1` (stereo not given), the melting point stood at 163 °C.

`O=c1[nH]c(C(F)(F)F)nc2ccccc12` displayed a melting point of 220 °C.

`Cc1c(Cl)cccc1S(=O)(=O)Nc1ccc2occ(C)c2c1` showed a melting point of 120 °C.

The compound `CCC(=O)C(=O)Nc1c(C)c(C)c2c(c1C)C(c1ccc(C(C)C)cc1)CO2` (stereo not given) gave a melting point of 97 to 98 °C.

`Cc1ccc(NC(=O)c2ccc(C(=O)Nc3ccccc3NC(=O)OC(C)(C)C)s2)cc1Nc1nccc(-c2cccnc2)n1` had a melting point of 206 to 208 °C.

As for `COCCNC(=O)c1cc2c(nc(C)n2C)c2c1CCC(c1ccccc1)O2` (stereo not given), the melting point fell in the range of 254 to 256 °C.

The compound `Cc1ccc2c(c1O)N=CC1CCCN1C2=O` (stereo not given) gave a melting point of 148 to 150 °C.

On to `Cc1cc(Cl)c2c(c1)C=C(C(=O)O)C(C(F)(F)F)O2` (stereo not given), for which the melting point lay in the range of 226 to 227 °C.

Compound `CC(=Cc1ccccc1)C(=O)c1ccc(O)c(CC(=O)O)c1` showed a melting point of 192 °C.

`O=C(CO)NCc1ccc2ccn(C3CCN(CCc4ccc(F)cc4)CC3)c2c1` yielded a melting point of 76 to 78 °C.

As to `CCCCc1cc2cc(O)ccc2c(Oc2ccc(/C=C/C(=O)O)cc2)c1-c1ccccc1`, the melting point was 128 to 130 °C.

`CS(=O)(=O)c1ccc(Oc2c(-c3ccc(S(C)(=O)=O)cc3)cnn(CC(F)(F)F)c2=O)cc1` gave a melting point of 212 to 213 °C.
